Results published in publication PMC5218480 (PLoS ONE, 2017).

Test system: MV-4-11 cells
Assay: Gene expression microarray analysis (Affymetrix PrimeView) and GSEA
Format: cell-based, human
Set-up: RFU PODN (11730768_x_at) / Fold change /veh PODN (11730768_x_at) / RFU LINC00158 (11744669_a_at) / Fold change /veh LINC00158 (11744669_a_at) / RFU DUSP10 (11751237_a_at) / Fold change /veh DUSP10 (11751237_a_at) / RFU ID3 (11757404_x_at) / Fold change /veh ID3 (11757404_x_at) / RFU PLEKHG5 (11737974_s_at) / Fold change /veh PLEKHG5 (11737974_s_at) / RFU LRRC4B (11730491_at) / Fold change /veh LRRC4B (11730491_at) / RFU GIMAP4 (11747438_a_at) / Fold change /veh GIMAP4 (11747438_a_at) / RFU KRT8 (11758183_x_at) / Fold change /veh KRT8 (11758183_x_at) / RFU CNN1 (11734310_a_at) / Fold change /veh CNN1 (11734310_a_at) / RFU VPS37D (11726825_at) / Fold change /veh VPS37D (11726825_at) / RFU C10orf10 (11716522_x_at) / Fold change /veh C10orf10 (11716522_x_at) / RFU KIR2DL2 /// KIR2DL4 /// KIR2DL5A /// KIR2DL5B /// KIR2DS1 /// KIR2DS2 /// KIR2DS3 /// KIR2DS4 /// KIR3DL3 /// KIR3DL3 /// KIR3DS1 (11738374_at) / Fold change /veh KIR2DL2 /// KIR2DL4 /// KIR2DL5A /// KIR2DL5B /// KIR2DS1 /// KIR2DS2 /// KIR2DS3 /// KIR2DS4 /// KIR3DL3 /// KIR3DL3 /// KIR3DS1 (11738374_at) / RFU C1QL1 (11718748_at) / Fold change /veh C1QL1 (11718748_at) / RFU TMPRSS4 (11747572_a_at) / Fold change /veh TMPRSS4 (11747572_a_at) / RFU HAMP (11756126_x_at) / Fold change /veh HAMP (11756126_x_at) / RFU RNFT2 (11725882_a_at) / Fold change /veh RNFT2 (11725882_a_at) / RFU NR4A2 (11747474_a_at) / Fold change /veh NR4A2 (11747474_a_at) / RFU ABCC12 (11746883_a_at) / Fold change /veh ABCC12 (11746883_a_at) / RFU TMEM136 (11760407_x_at) / Fold change /veh TMEM136 (11760407_x_at) / RFU CLDN22 /// WWC2 (11732394_at) / Fold change /veh CLDN22 /// WWC2 (11732394_at) / RFU HLA-DPB1 (11760878_x_at) / Fold change /veh HLA-DPB1 (11760878_x_at) / RFU SPINT1 (11716480_a_at) / Fold change /veh SPINT1 (11716480_a_at) / RFU GAP43 (11754022_s_at) / Fold change /veh GAP43 (11754022_s_at) / RFU A4GNT (11735810_at) / Fold change /veh A4GNT (11735810_at) / RFU PRB3 (11715151_x_at) / Fold change /veh PRB3 (11715151_x_at) / RFU TUBB4B (11761932_at) / Fold change /veh TUBB4B (11761932_at) / RFU CAPN14 (11732068_a_at) / Fold change /veh CAPN14 (11732068_a_at) / RFU TMCC2 (11721928_a_at) / Fold change /veh TMCC2 (11721928_a_at) / RFU IRGQ (11745062_a_at) / Fold change /veh IRGQ (11745062_a_at) / RFU FAM174B (11720279_a_at) / Fold change /veh FAM174B (11720279_a_at) / RFU TMPRSS4 (11748680_a_at) / Fold change /veh TMPRSS4 (11748680_a_at) / RFU FAM212B (11763350_a_at) / Fold change /veh FAM212B (11763350_a_at) / RFU PLEKHG5 (11743358_a_at) / Fold change /veh PLEKHG5 (11743358_a_at) / RFU ZSCAN30 (11745921_a_at) / Fold change /veh ZSCAN30 (11745921_a_at) / RFU CMKLR1 (11741424_a_at) / Fold change /veh CMKLR1 (11741424_a_at) / RFU LOC101060620 /// MAPK8IP1 (11723275_at) / Fold change /veh LOC101060620 /// MAPK8IP1 (11723275_at) / RFU SPTSSB (11747773_x_at) / Fold change /veh SPTSSB (11747773_x_at) / RFU PRSS12 (11739890_at) / Fold change /veh PRSS12 (11739890_at) / RFU BIN1 (11741810_x_at) / Fold change /veh BIN1 (11741810_x_at) / RFU WNT11 (11732464_a_at) / Fold change /veh WNT11 (11732464_a_at) / RFU C10orf10 (11716521_a_at) / Fold change /veh C10orf10 (11716521_a_at) / RFU C5orf56 (11738089_at) / Fold change /veh C5orf56 (11738089_at) / RFU CYB561 (11721691_x_at) / Fold change /veh CYB561 (11721691_x_at) / RFU ANKRD19P (11752326_a_at) / Fold change /veh ANKRD19P (11752326_a_at) / RFU OR2T12 /// OR2T33 /// OR2T8 (11738714_s_at) / Fold change /veh OR2T12 /// OR2T33 /// OR2T8 (11738714_s_at) / RFU VCAN (11748164_a_at) / Fold change /veh VCAN (11748164_a_at) / RFU JSRP1 (11732532_at) / Fold change /veh JSRP1 (11732532_at) / RFU KRTAP10-11 (11738290_x_at) / Fold change /veh KRTAP10-11 (11738290_x_at) / RFU MYO3A (11730013_a_at) / Fold change /veh MYO3A (11730013_a_at) / RFU EBF3 (11725865_a_at) / Fold change /veh EBF3 (11725865_a_at) / RFU CAMK2N1 (11719241_x_at) / Fold change /veh CAMK2N1 (11719241_x_at) / RFU C5orf56 (11738088_a_at) / Fold change /veh C5orf56 (11738088_a_at) / RFU OLFML3 (11715873_a_at) / Fold change /veh OLFML3 (11715873_a_at) / RFU LOC100653217 /// NTM (11731650_a_at) / Fold change /veh LOC100653217 /// NTM (11731650_a_at) / RFU MAPK11 (11762145_a_at) / Fold change /veh MAPK11 (11762145_a_at) / RFU FIZ1 (11724087_x_at) / Fold change /veh FIZ1 (11724087_x_at) / RFU OASL (11726364_x_at) / Fold change /veh OASL (11726364_x_at) / RFU SOX15 (11748057_x_at) / Fold change /veh SOX15 (11748057_x_at) / RFU CD79A (11719716_a_at) / Fold change /veh CD79A (11719716_a_at) / RFU HIST1H1D (11736915_at) / Fold change /veh HIST1H1D (11736915_at) / RFU CASKIN2 (11723855_a_at) / Fold change /veh CASKIN2 (11723855_a_at) / RFU LOC730098 (11760151_x_at) / Fold change /veh LOC730098 (11760151_x_at) / RFU OR4N2 (11742367_at) / Fold change /veh OR4N2 (11742367_at) / RFU PRRT2 (11749266_a_at) / Fold change /veh PRRT2 (11749266_a_at) / RFU SNX32 (11753110_a_at) / Fold change /veh SNX32 (11753110_a_at) / RFU CDHR5 (11726645_a_at) / Fold change /veh CDHR5 (11726645_a_at) / RFU RCAN1 (11760418_a_at) / Fold change /veh RCAN1 (11760418_a_at) / RFU FAM167A (11723789_a_at) / Fold change /veh FAM167A (11723789_a_at) / RFU FAM26E (11764081_at) / Fold change /veh FAM26E (11764081_at) / RFU ISYNA1 (11749810_s_at) / Fold change /veh ISYNA1 (11749810_s_at) / RFU ACY1 (11761880_at) / Fold change /veh ACY1 (11761880_at) / RFU 11764098_at / Fold change /veh 11764098_at / RFU SAMD14 (11745864_x_at) / Fold change /veh SAMD14 (11745864_x_at) / RFU NPB (11741838_a_at) / Fold change /veh NPB (11741838_a_at) / RFU TMPRSS6 (11731388_a_at) / Fold change /veh TMPRSS6 (11731388_a_at) / RFU KRTAP10-2 (11738614_at) / Fold change /veh KRTAP10-2 (11738614_at) / RFU ARHGAP8 /// PRR5-ARHGAP8 (11727945_x_at) / Fold change /veh ARHGAP8 /// PRR5-ARHGAP8 (11727945_x_at) / RFU KRTAP5-7 /// NADSYN1 (11734609_at) / Fold change /veh KRTAP5-7 /// NADSYN1 (11734609_at) / RFU RASL12 (11751679_a_at) / Fold change /veh RASL12 (11751679_a_at) / RFU CDKN2B (11736163_a_at) / Fold change /veh CDKN2B (11736163_a_at) / RFU PRF1 (11729649_at) / Fold change /veh PRF1 (11729649_at) / RFU, ZNF638 /// ZNF638-IT1 / Fold change vs veh, ZNF638 /// ZNF638-IT1 / RFU, PANK3 / Fold change vs veh, PANK3 / RFU, SH3YL1 / Fold change vs veh, SH3YL1 / RFU, ZEB2 / Fold change vs veh, ZEB2 / RFU, NRIP1 / Fold change vs veh, NRIP1 / RFU, PTTG1IP / Fold change vs veh, PTTG1IP / RFU, CAPN2 / Fold change vs veh, CAPN2 / RFU, MED14 / Fold change vs veh, MED14 / RFU, SNORA58 / Fold change vs veh, SNORA58 / RFU, C1orf63 / Fold change vs veh, C1orf63 / RFU, LRRFIP1 / Fold change vs veh, LRRFIP1 / RFU, NDUFAF7 / Fold change vs veh, NDUFAF7 / RFU, SLC12A2 / Fold change vs veh, SLC12A2 / RFU, IBTK / Fold change vs veh, IBTK / RFU, ESF1 / Fold change vs veh, ESF1 / Fold change vs veh, TMEM50B / RFU, TAOK1 / Fold change vs veh, TAOK1 / RFU, ACBD3 / Fold change vs veh, ACBD3 / RFU, TMA16 / Fold change vs veh, TMA16 / RFU, RWDD3 / Fold change vs veh, RWDD3 / RFU, BCAT1 / Fold change vs veh, BCAT1 / RFU, EDEM3 / Fold change vs veh, EDEM3 / RFU, TMEM33 / Fold change vs veh, TMEM33 / RFU, WDR75 / Fold change vs veh, WDR75 / RFU, AHCTF1 / Fold change vs veh, AHCTF1 / RFU, TFRC / Fold change vs veh, TFRC / RFU, ZDHHC17 / Fold change vs veh, ZDHHC17 / RFU, NOM1 / Fold change vs veh, NOM1 / RFU, ARL8B / Fold change vs veh, ARL8B / RFU, ZBTB11 / Fold change vs veh, ZBTB11 / RFU, TAMM41 / Fold change vs veh, TAMM41 / RFU, KIAA1704 /// LOC100996395 / Fold change vs veh, KIAA1704 /// LOC100996395 / RFU, ING1 / Fold change vs veh, ING1 / RFU, TRMT61B / Fold change vs veh, TRMT61B / RFU, FUBP3 / Fold change vs veh, FUBP3 / RFU, TP53 / Fold change vs veh, TP53 / RFU, TNKS2 / Fold change vs veh, TNKS2 / RFU, ZFP14 / Fold change vs veh, ZFP14 / RFU, ACTR2 / Fold change vs veh, ACTR2 / RFU, PPP3R1 / Fold change vs veh, PPP3R1 / RFU, PIK3R1 / Fold change vs veh, PIK3R1 / RFU, HNRNPA1 / Fold change vs veh, HNRNPA1 / RFU, RNF170 / Fold change vs veh, RNF170 / RFU, ZNF28 / Fold change vs veh, ZNF28 / RFU, RNGTT / Fold change vs veh, RNGTT / RFU, OGT / Fold change vs veh, OGT / RFU, BRD1 / Fold change vs veh, BRD1 / RFU, MARS / Fold change vs veh, MARS / RFU, ZNF655 / Fold change vs veh, ZNF655 / RFU, FAHD1 / Fold change vs veh, FAHD1 / RFU, BDP1 / Fold change vs veh, BDP1 / RFU, LRRCC1 / Fold change vs veh, LRRCC1 / RFU, ARID1A / Fold change vs veh, ARID1A / RFU, ZNF146 / Fold change vs veh, ZNF146 / RFU, ZNF330 / Fold change vs veh, ZNF330 / RFU, GPN3 / Fold change vs veh, GPN3 / RFU, C9orf123 / Fold change vs veh, C9orf123 / RFU, N4BP2L2 / Fold change vs veh, N4BP2L2 / RFU, ARFIP1 / Fold change vs veh, ARFIP1 / RFU, FAM179B / Fold change vs veh, FAM179B / RFU, BCL10 / Fold change vs veh, BCL10 / RFU, UHRF1BP1L / Fold change vs veh, UHRF1BP1L / RFU, BET1 / Fold change vs veh, BET1 / RFU, CNOT2 / Fold change vs veh, CNOT2 / RFU, ZNF268 / Fold change vs veh, ZNF268 / Fold change vs veh, ZNF507 / RFU, DGCR2 / Fold change vs veh, DGCR2 / RFU, WDSUB1 / Fold change vs veh, WDSUB1 / Fold change vs veh, HSP90B1 /// MIR3652 / RFU, ADSS / Fold change vs veh, ADSS / RFU, GK / Fold change vs veh, GK / RFU, ZNF148 / Fold change vs veh, ZNF148 / RFU, TAF9 / Fold change vs veh, TAF9 / RFU, SLC1A5 / Fold change vs veh, SLC1A5 / RFU, SLMO2 / Fold change vs veh, SLMO2 / RFU, ABCC4 / Fold change vs veh, ABCC4 / RFU, LOC101060439 /// RAP1B / Fold change vs veh, LOC101060439 /// RAP1B / RFU, RFX7 / Fold change vs veh, RFX7 / RFU, GTPBP10 / Fold change vs veh, GTPBP10 / RFU, CNEP1R1 / Fold change vs veh, CNEP1R1 / RFU, BIVM-ERCC5 /// ERCC5 / Fold change vs veh, BIVM-ERCC5 /// ERCC5 / RFU, ILF3 / Fold change vs veh, ILF3 / RFU 11762660_at / Fold change /veh 11762660_at / RFU VCAN (11757783_s_at) / Fold change /veh VCAN (11757783_s_at) / RFU DDX43 (11728927_at) / Fold change /veh DDX43 (11728927_at) / RFU KRT8 (11758188_x_at) / Fold change /veh KRT8 (11758188_x_at) / RFU NKD1 (11759106_at) / Fold change /veh NKD1 (11759106_at) / RFU SRD5A1 (11742802_a_at) / Fold change /veh SRD5A1 (11742802_a_at) / RFU TPSAB1 /// TPSB2 (11721975_s_at) / Fold change /veh TPSAB1 /// TPSB2 (11721975_s_at) / RFU GSTM3 (11746129_a_at) / Fold change /veh GSTM3 (11746129_a_at) / RFU IL23R (11737362_x_at) / Fold change /veh IL23R (11737362_x_at) / RFU TMEM51 (11727254_a_at) / Fold change /veh TMEM51 (11727254_a_at) / RFU PIWIL2 (11732686_x_at) / Fold change /veh PIWIL2 (11732686_x_at) / RFU ORM1 (11744905_x_at) / Fold change /veh ORM1 (11744905_x_at) / RFU CCDC152 (11743942_at) / Fold change /veh CCDC152 (11743942_at) / RFU ECM1 (11717891_a_at) / Fold change /veh ECM1 (11717891_a_at) / RFU IL23R (11748794_a_at) / Fold change /veh IL23R (11748794_a_at) / RFU TNFAIP8L3 (11732012_x_at) / Fold change /veh TNFAIP8L3 (11732012_x_at) / RFU MBOAT4 (11741988_at) / Fold change /veh MBOAT4 (11741988_at) / RFU 11764193_at / Fold change /veh 11764193_at / RFU TMEM53 (11763286_at) / Fold change /veh TMEM53 (11763286_at) / RFU MAGEB2 (11727129_at) / Fold change /veh MAGEB2 (11727129_at) / RFU TMEM200A (11744735_a_at) / Fold change /veh TMEM200A (11744735_a_at) / RFU CCDC152 (11751479_a_at) / Fold change /veh CCDC152 (11751479_a_at) / RFU FAM211A (11726209_a_at) / Fold change /veh FAM211A (11726209_a_at) / RFU RGS16 (11746705_a_at) / Fold change /veh RGS16 (11746705_a_at) / RFU VCAN (11755009_s_at) / Fold change /veh VCAN (11755009_s_at) / RFU RHOB (11743442_s_at) / Fold change /veh RHOB (11743442_s_at) / RFU RGS16 (11720943_a_at) / Fold change /veh RGS16 (11720943_a_at) / RFU RGS16 (11720944_at) / Fold change /veh RGS16 (11720944_at) / RFU, VPS4B / Fold change vs veh, VPS4B / RFU, CREB1 / Fold change vs veh, CREB1 / RFU, DNAJC13 / Fold change vs veh, DNAJC13 / RFU, GNAQ / Fold change vs veh, GNAQ / RFU, CDK5R1 / Fold change vs veh, CDK5R1 / RFU, ZRANB3 / Fold change vs veh, ZRANB3 / RFU, CUL4A / Fold change vs veh, CUL4A / RFU, CCNY / Fold change vs veh, CCNY / RFU, UFL1 / Fold change vs veh, UFL1 / RFU, COG3 / Fold change vs veh, COG3 / RFU, DIAPH2 / Fold change vs veh, DIAPH2 / RFU, SKA2 / Fold change vs veh, SKA2 / RFU, AFF3 / Fold change vs veh, AFF3 / RFU, LMF1 / Fold change vs veh, LMF1 / RFU, IPO11 / Fold change vs veh, IPO11 / RFU, DFFB / Fold change vs veh, DFFB / RFU, FOXP1 / Fold change vs veh, FOXP1 / RFU, CARD8 / Fold change vs veh, CARD8 / RFU, STRN3 / Fold change vs veh, STRN3 / RFU, ADK / Fold change vs veh, ADK / RFU, RASSF2 / Fold change vs veh, RASSF2 / RFU, WIPF1 / Fold change vs veh, WIPF1 / RFU, LARP1B / Fold change vs veh, LARP1B / RFU, RASA1 / Fold change vs veh, RASA1 / RFU, RB1 / Fold change vs veh, RB1 / RFU, PPFIA1 / Fold change vs veh, PPFIA1 / RFU, MAT2A / Fold change vs veh, MAT2A / RFU, CCT5 / Fold change vs veh, CCT5 / RFU, WDR92 / Fold change vs veh, WDR92 / RFU, CUX1 / Fold change vs veh, CUX1 / RFU, TTC7A / Fold change vs veh, TTC7A / RFU, TMEM135 / Fold change vs veh, TMEM135 / RFU, DEPTOR / Fold change vs veh, DEPTOR / RFU, CPM / Fold change vs veh, CPM / RFU, DNAJB6 / Fold change vs veh, DNAJB6 / RFU, CACNA2D3 / Fold change vs veh, CACNA2D3 / RFU, DTX4 / Fold change vs veh, DTX4 / RFU, TFCP2 / Fold change vs veh, TFCP2 / RFU, GMCL1 /// GMCL1P1 / Fold change vs veh, GMCL1 /// GMCL1P1 / RFU, AEBP2 / Fold change vs veh, AEBP2 / RFU, SNHG1 /// SNORD22 /// SNORD25 /// SNORD26 /// SNORD27 /// SNORD28 /// SNORD29 /// SNORD31 / Fold change vs veh, SNHG1 /// SNORD22 /// SNORD25 /// SNORD26 /// SNORD27 /// SNORD28 /// SNORD29 /// SNORD31 / Fold change (Aza/veh), C12orf56 (ProbeSet 11735607_a_at) / Fold change (ACY-1035/veh), C12orf56 (ProbeSet 11735607_a_at) / Fold change (Aza/veh), FGFR1OP (ProbeSet 11751329_s_at) / Fold change (ACY-1035/veh), FGFR1OP (ProbeSet 11751329_s_at) / Fold change (Aza/veh), VPS36 (ProbeSet 11739960_a_at) / Fold change (ACY-1035/veh), VPS36 (ProbeSet 11739960_a_at) / RFU SYPL1 (11715823_x_at) / Fold change /veh SYPL1 (11715823_x_at) / RFU IGFBP7 (11715501_s_at) / Fold change /veh IGFBP7 (11715501_s_at) / RFU REEP3 (11722064_at) / Fold change /veh REEP3 (11722064_at) / RFU IGLL1 (11728026_x_at) / Fold change /veh IGLL1 (11728026_x_at): dose or concentration left out as unconfirmed
Conditions: MV-4-11 cells, 48 hours

Nc1ccc(-c2cccs2)cc1NC(=O)c1ccc2c(c1)cc(C1CC1)n2CCN1CCOCC1 [ACY-1035]
Fold change /veh SYPL1 (11715823_x_at): 0.54
